Source: patent publication US20260308173A1, “OXAZOLOPYRIDIN-7(4H)-ONE WRN INHIBITORS” (NIMBUS WADJET, INC., priority 2023, published 2026)

Tests used:
human Werner helicase = biological target: T1, human Werner helicase (Homo sapiens, UniProt Q14191, L1074F); experiment: WRN (BV08) ADP-Glo Assay; assay type: biochemical; conditions: WRN-BV08 (517-1235 L1074F) 0.15 nM, 0.1 nM DNA duplex, ATP, 15 min preincubation, 60 min at 25° C, pH 7.5; read-out: ADP-Glo_hWRN_IC50
T1 construct: Uniprot Q14191, amino acids 517-1235 with L1074F point mutation; TEV-cleavable 8xHis tag (C, cleaved yes); made in house; host or cells: Sf9 insect cells (baculovirus)
T1 sequence (Q14191 with tags, fused parts or gaps L1074F): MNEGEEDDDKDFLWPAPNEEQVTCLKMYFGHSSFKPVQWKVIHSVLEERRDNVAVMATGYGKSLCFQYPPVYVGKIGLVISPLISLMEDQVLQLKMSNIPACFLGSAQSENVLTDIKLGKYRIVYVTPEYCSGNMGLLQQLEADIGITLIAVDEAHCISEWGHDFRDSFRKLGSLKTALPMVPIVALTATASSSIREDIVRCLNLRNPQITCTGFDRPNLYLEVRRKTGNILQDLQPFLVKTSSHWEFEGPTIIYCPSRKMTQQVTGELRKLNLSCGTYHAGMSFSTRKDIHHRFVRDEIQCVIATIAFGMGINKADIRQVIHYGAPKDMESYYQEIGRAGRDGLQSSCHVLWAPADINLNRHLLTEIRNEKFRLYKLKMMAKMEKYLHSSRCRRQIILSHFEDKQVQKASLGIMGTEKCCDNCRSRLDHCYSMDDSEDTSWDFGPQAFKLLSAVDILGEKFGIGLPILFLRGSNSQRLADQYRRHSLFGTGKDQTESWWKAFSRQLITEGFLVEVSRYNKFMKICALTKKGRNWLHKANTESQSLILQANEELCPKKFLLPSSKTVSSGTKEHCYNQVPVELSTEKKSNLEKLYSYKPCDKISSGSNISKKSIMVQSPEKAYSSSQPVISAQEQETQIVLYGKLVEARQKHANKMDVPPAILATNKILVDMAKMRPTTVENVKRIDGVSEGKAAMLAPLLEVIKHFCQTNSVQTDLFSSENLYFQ
Source text: Example 2: WRN (BV08) ADP-Glo Assay Protocol
Bovine skin gelatin (BSG), dimethyl sulfoxide (DMSO), Pluronic F-127 and tris(2-carboxyethyl)phosphine hydrochloride solution (TCEP) were purchased from Sigma-Aldrich (St. Louis, MO) at the highest level of purity possible. Bicine buffer solution was purchased from Alfa Aesar (Tewksbury, MA) and compound NSC-617145 was purchased from Tocris (Minneapolis, MN). DNA duplex was synthesized at BGI (Shenzhen, China) and was composed of strand 1 with the sequence 5′-[…]-3′ (SEQ ID NO.: 1) and strand 2 with the sequence 5′-[…]-3′ (SEQ ID NO.: 2). DNA strands were annealed by heating to 95° C. for 5 minutes followed by slow cooling to room temperature. Compounds in 100% DMSO (0.1 μl) were spotted into a 384-well white polystyrene Optiplate-384 (Perkin Elmer; Waltham, MA) assay plate using a LabCyte Echo 550 (Agilent; Santa Clara, CA). DMSO (0.1 μl) was added to columns 12, rows A-H and column 24, rows I-P for the maximum signal control. Compound NSC-617145 (0.1 μl) was added to columns 12, rows I-P and 24, rows A-H for the minimum signal control (100% inhibition). Compounds/DMSO were preincubated for 15 minutes at 25° C. with 5 μl 2×WRN (BV08), prepared as described below, in assay buffer containing 20 mM Bicine (pH=7.5), 1 mM MgCl2, 10 mM KCl, 0.1% Pluronic F-127, 0.005% BSG, 1 mM TCEP. The reaction was initiated by the addition of 5 μl 2× substrate mixture in assay buffer and incubated for 60 minutes at 25° C. The final concentrations of the assay components were 0.15 nM WRN, 5 µM ATP, and 0.1 nM DNA duplex. The final DMSO concentration was 1% and the reference compound concentration (NSC-617145) used for the minimal signal control was 20 μM. The reaction was stopped by the addition of the ADP-Glo Kit components (Promega; Madison, WI) as directed and the relative luminescence units (RLU) were read on an Envision 2104 (Perkin Elmer; Waltham, MA).
Where RLU=relative luminescence units, sample=signal in sample well, and MIN and MAX are the respective minimum and maximum signal controls.
Y=Bottom+(Top−Bottom)/(1+(IC50/X)^Hill Slope)
Where top and bottom are normally allowed to float but may be fixed at 100 or 0 respectively in a 3-parameter fit. Y is the % inhibition and X is the compound concentration.
Molecular Biology and virus production. The DNA encoding human Werner helicase (Uniprot Q14191, amino acids 517-1235 with L1074F point mutation) was generated with codon-optimization for E. coli expression and subcloned into the pFastBac vector with a TEV cleavable 8×His tag (WRN—BV08). The baculovirus from the expression plasmid WRN—BV08 was generated from transfection and amplification following the manufacturer's instructions.
Sf9 cells grown in SF900II media were infected with 1:200 WRN—BV08 P2 virus and incubated for protein expression for 72 h at 27° C. The WRN protein was purified using the following protocol. The cell pellets were thawed and resuspended in buffer A (50 mM Tris, pH 7.5, 500 mM NaCl, 1 mM TCEP, 10% Glycerol) supplemented with 0.5% CHAPS, 1 mM [COMPOUND LEFT OUT], 1 μg/ml Leupeptin, 1 μg/ml Pepstatin, and the Pierce Universal Nuclease and cocktail tablet. Cleared lysates were loaded onto a Ni Sepharose™ excel column and washed with buffer A and bound protein was eluted with buffer A supplemented with 300 mM imidazole. The eluted protein was dialyzed against buffer A and digested by His-tagged TEV (1:5 ratio) overnight at 4° C. […]

p21 (Homo sapiens) = biological target: T2, p21 (Homo sapiens); experiment: Effect on p21 induction in HCT116 cells; assay type: cell-based; conditions: HCT116 colon carcinoma cells, 24 h, p21/GAPDH ratio, percent activation vs internal reference WRN inhibitor; read-out: P21_EC50
T2 construct: p21 in-cell western after 24 h, GAPDH normalised
T2 sequence (Q14191 whole entry): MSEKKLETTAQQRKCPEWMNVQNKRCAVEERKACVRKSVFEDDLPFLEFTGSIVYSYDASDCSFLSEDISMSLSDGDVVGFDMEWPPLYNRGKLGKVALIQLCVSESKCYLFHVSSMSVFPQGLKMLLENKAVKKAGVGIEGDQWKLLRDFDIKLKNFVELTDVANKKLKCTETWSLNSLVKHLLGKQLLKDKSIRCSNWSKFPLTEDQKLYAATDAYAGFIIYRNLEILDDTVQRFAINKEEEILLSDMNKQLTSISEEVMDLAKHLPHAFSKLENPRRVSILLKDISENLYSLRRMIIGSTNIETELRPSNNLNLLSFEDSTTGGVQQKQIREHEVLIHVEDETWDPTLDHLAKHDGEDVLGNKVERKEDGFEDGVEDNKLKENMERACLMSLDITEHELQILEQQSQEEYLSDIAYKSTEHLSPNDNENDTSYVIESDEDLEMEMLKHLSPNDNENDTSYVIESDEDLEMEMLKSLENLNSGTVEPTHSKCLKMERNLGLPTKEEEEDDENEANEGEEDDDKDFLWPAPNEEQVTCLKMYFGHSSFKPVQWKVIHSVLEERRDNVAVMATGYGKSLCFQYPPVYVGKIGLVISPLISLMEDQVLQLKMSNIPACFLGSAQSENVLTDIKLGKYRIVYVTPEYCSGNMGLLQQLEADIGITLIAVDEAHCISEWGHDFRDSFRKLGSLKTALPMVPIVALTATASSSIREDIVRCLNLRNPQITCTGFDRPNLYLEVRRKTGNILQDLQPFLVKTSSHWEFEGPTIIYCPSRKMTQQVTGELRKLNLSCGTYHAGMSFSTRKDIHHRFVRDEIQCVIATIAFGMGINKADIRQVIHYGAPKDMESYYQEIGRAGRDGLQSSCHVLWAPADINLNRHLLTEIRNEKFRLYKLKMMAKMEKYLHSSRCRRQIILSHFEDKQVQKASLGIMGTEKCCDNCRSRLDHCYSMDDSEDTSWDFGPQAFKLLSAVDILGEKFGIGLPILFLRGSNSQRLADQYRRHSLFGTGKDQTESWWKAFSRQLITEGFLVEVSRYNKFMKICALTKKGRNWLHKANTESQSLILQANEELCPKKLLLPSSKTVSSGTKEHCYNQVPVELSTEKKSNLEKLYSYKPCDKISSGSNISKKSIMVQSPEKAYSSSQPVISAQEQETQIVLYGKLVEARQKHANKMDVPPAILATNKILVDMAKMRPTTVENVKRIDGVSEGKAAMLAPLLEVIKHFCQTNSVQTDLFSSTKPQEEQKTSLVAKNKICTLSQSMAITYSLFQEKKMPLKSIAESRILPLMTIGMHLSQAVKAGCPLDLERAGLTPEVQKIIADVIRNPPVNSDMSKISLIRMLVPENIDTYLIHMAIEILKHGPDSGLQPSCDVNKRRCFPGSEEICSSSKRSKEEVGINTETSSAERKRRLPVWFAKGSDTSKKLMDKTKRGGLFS
Experimental: Example 3: Method for Determining Effect on p21 Induction in Cells
The colon carcinoma cell line HCT116 was obtained from ATCC and cultured in growth medium consisting of Mccoy's 5A Medium (Gibco 16600108) supplemented with 10% FBS (Transgene FS201-02) and 100 units/mL penicillin-streptomycin (Gibco 15140122) and maintained at 37° C. under 5% CO2. On the day of seeding, 2,000 cells in 30 μL of culture media were plated per well to Poly-D-Lysine 384 Well Black Clear Plates (Biocoat 356663) and incubated overnight at 37° C. under 5% CO2. The following day, compounds were serially diluted in DMSO for a total of 11 test concentrations. The typical starting concentration of cpds was 10 μM with 2-fold dilutions. Next, 150 nL of diluted compound was added in duplicate to the assay plate, using an Echo 655 (Labcyte). The plate was centrifuged at 500 RPM for 1 min and then incubated at 37° C. under 5% CO2 for 24 h. After 24 h, medium was removed, and cells were fixed by adding 40 μL of 4% paraformaldehyde solution to each well and incubated for 20 min at room temperature. The plate was then washed 4 times with 100 μL per well of wash buffer (PBS with 0.1% Tween-20) using a microplate washer. Next, 30 μL of ice-cold methanol was added to each well and the plate was incubated at −20° C. for 10 min. The plate was washed 4 times with 100 μL per well of wash buffer by a microplate washer, then 30 μL per well of blocking buffer ((Intercept PBS blocking buffer (LI-COR 927-70001) with 0.05% Tween-20)) was added and the plate was incubated at room temperature with shaking for 2h. Next, to each test well, 20 μL of primary antibody solution ((p21 Waf1/CIP (12D1) Rabbit mAb (Cell Signaling Technologies 2947) diluted 1:1000 and GAPDH (D4C6R) Mouse mAb (Cell Signaling Technologies 97166) diluted 1:2000 in blocking buffer)) was added and the plate was placed at 4° C., overnight. The following day, the plate was washed 5 times with 100 μL per well of wash buffer using a microplate washer for 5 min. 20 μL per well of secondary antibody ((IRDye 680CW Goat anti-Mouse IgG (H+L) (LI-COR 926-68070) diluted 1:2000 in Blocking Buffer and IRDye 800CW Goat anti-Rabbit IgG (H+L) (LI-COR 926-32211) diluted 1:2000 in Blocking Buffer)) was then added and the plate was stored for 2 h in the dark at room temperature with shaking. The plate was then washed 4 times with 100 μL per well of wash buffer again using a microplate washer. Finally, the p21 signal and the GAPDH signal were quantified using a LI-COR Odyssey CLx Imager machine reading at 800 nm and 700 nm, respectively. Each plate contained DMSO control (low control) and an internal reference WRN inhibitor (high control) respectively. For quantitation, the 800 nm/700 nm ratio was calculated for each well to give fold p21 induction and then percent activation for each compound well was calculated as follows ((100×(ratio cpd well−ratio low control)/(ratio high control−ratio low control)). EC50 values for each compound was generated after non-linear regression curve fitting using commercially available software.

Compound | IC50 (human Werner helicase) [nM] | EC50 (p21 (Homo sapiens)) [nM]
CCc1c(N2CCN(C(=O)c3ncnc(C)c3O)CC2)c(=O)c2nc(-c3ccnc(OC)c3)oc2n1CC(=O)Nc1ccc(C(F)(F)F)cc1Cl [1-2] | ≤ 5 | –
CCc1c(N2CCN(C(=O)c3ncnc(C)c3O)CC2)c(=O)c2oc(-c3ccnc(OC)c3)nc2n1CC(=O)NC12CC(C(F)(F)F)(C1)C2 [1-3] | 5 to 50 | –
CCc1c(N2CCN(C(=O)c3ncnc(C)c3O)CC2)c(=O)c2oc(-c3ccnc(OC)c3)nc2n1CC(=O)Nc1ccc(C(F)(F)F)cc1Cl [I-1, N-(2-chloro-4-(trifluoromethyl)phenyl)-2-(5-ethyl-6-(4-(5-hydroxy-6-methylpyrimidine-4-carbonyl)piperazin-1-y1)-2-(2-methoxypyridin-4-yl)-7-oxooxazolo[4,5-b]pyridin-4(7H)-yl)acetamide] | ≤ 5 | ≤ 500
CCc1c(N2CCN(C(=O)c3ncnc(C)c3O)CC2)c(=O)c2nc(-c3ccnc(OC)c3)oc2n1CC(=O)Nc1ccc(C(F)(F)F)cc1Cl [I-2, N-(2-chloro-4-(trifluoromethyl)phenyl)-2-(5-ethyl-6-(4-(5-hydroxy-6-methylpyrimidine-4-carbonyl)piperazin-1-yl)-2-(2-methoxypyridin-4-yl)-7-oxooxazolo[5,4-b]pyridin-4(7H)-yl)acetamide] | – | ≤ 500
CCc1c(N2CCN(C(=O)c3ncnc(C)c3O)CC2)c(=O)c2oc(-c3ccnc(OC)c3)nc2n1CC(=O)NC12CC(C(F)(F)F)(C1)C2 [I-3, 2-(5-ethyl-6-(4-(5-hydroxy-6-methylpyrimidine-4-carbonyl)piperazin-1-yl)-2-(2-methoxypyridin-4-yl)-7-oxooxazolo[4,5-b]pyridin-4(7H)-yl)-N-(3-(trifluoromethyl)bicyclo[1.1.1]pentan-1-yl)acetamide] | – | 2000 to 5000
CCc1c(N2CCN(C(=O)c3ncnc(C)c3O)CC2)c(=O)c2nc(-c3ccnc(OC)c3)oc2n1CC(=O)NC12CC(C(F)(F)F)(C1)C2 [I-4, 2-(5-ethyl-6-(4-(5-hydroxy-6-methylpyrimidine-4-carbonyl)piperazin-1-yl)-2-(2-methoxypyridin-4-yl)-7-oxooxazolo[5,4-b]pyridin-4(7H)-y1)-N-(3-(trifluoromethyl)bicyclo[1.1.1]pentan-1-yl)acetamide] | 5 to 50 | > 5000
CCc1c(N2CCN(C(=O)c3c(O)ccc4ncoc34)CC2)c(=O)c2oc(-c3ccnc(OC)c3)nc2n1CC(=O)Nc1ccc(C(F)(F)F)cc1Cl [I-5, N-(2-chloro-4-(trifluoromethyl)phenyl)-2-(5-ethyl-6-(4-(6-hydroxybenzo[d]oxazole-7-carbonyl)piperazin-1-y1)-2-(2-methoxypyridin-4-yl)-7-oxooxazolo[4,5-b]pyridin-4(7H)-y1)acetamide] | ≤ 5 | ≤ 500
